Structures can show the parent of a compound that is named as a salt. Where a SMILES comes first, the peptide text is derived from it.
How the values were obtained:
Assay type in all cases: cell-based
[1] = test system: COL1A1; test: In vitro efficacy in semi-activated LX2 cells, qPCR: COL1A1; details: 48 hours, Q-PCR; for inhibition at 50 µM: Homo sapiens, LX-2, 50 µM, read-out: COL1A1 mRNA inhibition rate; for COL1A1 mRNA inhibition rate: 50 µM
Description: (§1) Test compounds were added to the LX-2 cells respectively, and total RNA in the cells was extracted 48 hours later. This experiment was performed strictly in accordance with the instructions of the Total RNA Kit. The steps were as follows (note: this experiment was performed on ice throughout the entire process, and special RNase-free tips were used throughout the entire process): • 1) The 12-well cell culture plate was taken out from the incubator, the cell culture medium was discarded, the cells were washed twice with 1 mL of 1×PBS, and a negative pressure suction device was used to fully remove PBS; • 2) 350 μL of TRK Lysis Buffer mixture/well was prepared as needed (mixture preparation method: 1 mL of TRKLysis Buffer+20 μL of β-mercaptoethanol), vortexed and mixed well. 350 μL was added to each well of the 12-well cell culture plate, and allowed to stand at room temperature for 5 minutes to fully lyse the cells; • 3) 70% ethanol/well was prepared as needed, vortexed and mixed well. 350 μL was added to each well of the 12-well cell culture plate, mixed well by shaking, and transferred to the spin column (spin column+collection tube were assembled); • 4) Centrifugation was performed at 4° C., 12000 g for 60 sec. The waste liquid was discarded after centrifugation, while the spin column was kept; • 5) 500 μL of RNA Wash Buffer I was added, centrifuged at 4° C., 12000 g for 60 sec, the waste liquid was discarded after centrifugation, and the collection column was kept; • 6) 500 μL of RNA Wash Buffer II (confirmed that ethanol had been added) was added, centrifuged at 4° C., 12000 g for 60 sec, the waste liquid was discarded after centrifugation, and the collection column was kept; • 7) step 6) was repeated once again, centrifugation was performed at 4° C., 12000 g for 90 sec, the waste liquid was discarded after centrifugation, and the collection column was kept; • 8) Centrifugation was performed at 4° C., 12000 g for 120 sec to ensure that the spin column was fully dried; • 9) The dried spin column was inserted into a new 1.5 mL EP tube, and 30 μL of DEPC water was added to the membrane in the center of the spin column. It should be careful not to touch the EP tube cover in this step. It was allowed to stand at room temperature for 5 minutes to ensure that the RNA was fully dissolved in DEPC water. Centrifugation was performed at 4° C., 12000 g for 60 sec, and the EP tube was kept; • 10) NanoDrop ultra-micro-volume spectrophotometer was used to detect RNA concentration;
(§2) 5.2 Reverse transcription of RNA into cDNA: According to the instructions of PrimeScript™ RT reagent Kit (Perfect Real Time), the specific experimental steps were as follows:
(§3) 5.3 Q-PCR detection of target gene expression: According to the instructions of Power SYBR® Green PCR Master Mix, the specific operations were as follows:
(§4) After the reaction was completed, the amplification curve and dissolution curve of Q-PCR were confirmed, and the relative quantification method ([…]) was used to perform data analysis on the experimental results.
(§5) LX2 cells were passaged and plated normally. […] After 48 hours, the cells were collected, total RNA was extracted, and Q-PCR was used to detect the changes in the mRNA expression levels of liver fibrosis-related genes (ACTA2 encoding α-SMA, COL1A1 and COLIA2 encoding collagen I, COL3A1 encoding collagen III, SMAD3 encoding Smad3) and inflammation-related genes (IL1β encoding IL-1β, TNFα encoding TNFα) (for specific methods, see 5. Q-PCR detection of target gene expression as described above). α-SMA was a marker of hepatic stellate cell activation, and collagen I and collagen III were the main components of extracellular matrix deposition.

[2] = test system: α-SMA; test: In vitro efficacy in semi-activated LX2 cells, qPCR: α-SMA; details: 48 hours, Q-PCR; for inhibition at 50 µM: read-out: α-SMA mRNA inhibition rate
Description: as §1, §2, §3, §4, §5

[3] = test system: Smad3; test: In vitro efficacy in semi-activated LX2 cells, qPCR: Smad3; details: 48 hours, Q-PCR; for inhibition at 50 µM: Homo sapiens, LX-2, 50 µM, read-out: Smad3 mRNA inhibition rate; for inhibition of the expression of Smad3 at the mRNA level: Table 2
Description: as §1, §2, §3, §4, §5

[4] = test system: TNF-α; test: In vitro efficacy in semi-activated LX2 cells, qPCR: TNF-α; details: Q-PCR; for inhibition at 50 µM: Homo sapiens, LX-2, 48 hours, read-out: TNF-α mRNA inhibition rate
Description: as §1, §2, §3, §4
(§6) LX2 cells were passaged and plated normally. After adherent growth for 12 hours, 50 µM of the test compound was added. After 48 hours, the cells were collected, total RNA was extracted, and Q-PCR was used to detect the changes in the mRNA expression levels of liver fibrosis-related genes (ACTA2 encoding α-SMA, COL1A1 and COLIA2 encoding collagen I, COL3A1 encoding collagen III, SMAD3 encoding Smad3) and inflammation-related genes (IL1β encoding IL-1β, TNFα encoding TNFα) (for specific methods, see 5. Q-PCR detection of target gene expression as described above). α-SMA was a marker of hepatic stellate cell activation, and collagen I and collagen III were the main components of extracellular matrix deposition.

[5] = test system: IL-1β; test: In vitro efficacy in semi-activated LX2 cells, qPCR: IL-1β; details: 48 hours, Q-PCR; for inhibition at 50 µM: Homo sapiens, LX-2, 50 µM, read-out: IL-1β mRNA inhibition rate; for IL-1β mRNA inhibition rate: 50 µM
Description: as §1, §2, §3, §4, §5

[6] = test system: COL3A1; test: In vitro efficacy in semi-activated LX2 cells, qPCR: COL3A1; details: 48 hours, Q-PCR; for COL3A1 mRNA inhibition rate: 50 µM; for inhibition at 50 µM: Homo sapiens, LX-2, 50 µM, read-out: COL3A1 mRNA inhibition rate
Description: as §1, §2, §3, §4, §5

[7] = test system: collagen I and collagen III; test: Semi-activated LX2 cells, qPCR: collagen I and collagen III at the mRNA level; details: 48 hours, Q-PCR, Table 2
Description: as §1, §3
as §6, with “deposition. […]” for “deposition.”

[8] = test system: COL1A2; test: In vitro efficacy in semi-activated LX2 cells, qPCR: COL1A2; details: Homo sapiens, LX-2, 48 hours, Q-PCR, read-out: COL1A2 mRNA inhibition rate
Description: as §1, §2, §3, §4, §6

Structure (SMILES)	inhibition at 50 µM [1] [%]	inhibition at 50 µM [2] [%]	inhibition at 50 µM [3] [%]	inhibition at 50 µM [4] [%]	inhibition at 50 µM [5] [%]	inhibition of the expression of collagen I and collagen III at the mRNA level [7]	inhibition at 50 µM [6] [%]	also measured
CC(C)(C)OC(=O)C[C@H](NC(=O)OC(C)(C)C)C(=O)O [Compound 17]	1 to 10	1 to 10	1 to 10	10 to 25				
C=CCOC(=O)C[C@H](NC(=O)OCC1c2ccccc2-c2ccccc21)C(=O)O [Compound 11]			1 to 10	1 to 10	25 to 50			
COC(=O)C[C@H](N)C(=O)OC(C)(C)C.Cl [Compound 44]						could inhibit		COL1A1 mRNA inhibition rate [1]: D (D represented that the inhibition rate was 10% to 25%); COL3A1 mRNA inhibition rate [6]: E (E represented that the inhibition rate was 1% to 10%); IL-1β mRNA inhibition rate [5]: E (E represented that the inhibition rate was 1% to 10%)
COC(=O)C[C@H](NC(=O)OC(C)(C)C)C(=O)O [Compound 8]	10 to 25		1 to 10		1 to 10	could inhibit	10 to 25	
CC(C)OC(=O)OCOC(=O)[C@H](Cc1ccccc1)NC(=O)[C@@H](N)CC(=O)O [Compound 53, (S)-3-amino-4-(((S)-1-(((isopropoxycarbonyl)oxy)methoxy)-1-oxo-3-phenylpropan-2-yl)amino)-4-oxobutyric acid hydrochloride]	10 to 25	10 to 25				could inhibit	10 to 25	inhibition at 50 µM [8]: 1 to 10%; inhibition of the expression of α-SMA at the mRNA level ([2]; Table 2): could inhibit
CC(C)(C)OC(=O)[C@@H](N)CC(=O)O [Compound 14]	10 to 25			1 to 10		could inhibit	1 to 10	
N[C@@H](CC(=O)NCC(=O)O)C(=O)O [Compound 34]		1 to 10	1 to 10	1 to 10	1 to 10		1 to 10	
CC(C)(C)OC(=O)C[C@H](NC(=O)OCc1ccccc1)C(=O)O [Compound 16]	1 to 10			1 to 10				
CC(C)C(=O)N[C@@H](CC(=O)O)C(=O)O [Compound 59, isobutyryl-L-aspartic acid]	10 to 25	1 to 10		1 to 10		could inhibit		
CC(C)(C)OC(=O)[C@@H](N)CC(=O)OCc1ccccc1.Cl [Compound 42]						could inhibit		COL1A1 mRNA inhibition rate [1]: C (C represented that the inhibition rate was 25% to 50%); COL3A1 mRNA inhibition rate [6]: E (E represented that the inhibition rate was 1% to 10%); Smad3 mRNA inhibition rate ([3]; 50 µM): E (E represented that the inhibition rate was 1% to 10%); IL-1β mRNA inhibition rate [5]: E (E represented that the inhibition rate was 1% to 10%); TNF-α mRNA inhibition rate ([4]; 50 µM, 48 hours): D (D represented that the inhibition rate was 10% to 25%)
CC(C)(C)OC(=O)C[C@H](NC(=O)OCC1c2ccccc2-c2ccccc21)C(=O)O [Compound 18]	10 to 25					could inhibit	1 to 10	inhibition at 50 µM [8]: 1 to 10%
O=C(O)C[C@H](NC(=O)[C@@H]1CCCN1)C(=O)O [Compound 40] (H-Pro-Asp-OH)	25 to 50		1 to 10	1 to 10	1 to 10	could inhibit	25 to 50	
CC(C)(C)OC(=O)N[C@@H](CC(=O)O)C(=O)O [Compound 1]	1 to 10	1 to 10	10 to 25	1 to 10				inhibition of the expression of Smad3 at the mRNA level [3]: could inhibit
CC(=O)N[C@@H](CC(=O)OC(C)(C)C)C(=O)O [Compound 31]	1 to 10	1 to 10			1 to 10			
CC(C)OC(=O)C[C@H](N)C(=O)O [Compound 36, 4-isopropyl L-aspartic acid ester]		1 to 10	1 to 10	1 to 10			1 to 10	
COC(=O)C[C@H](NC(=O)OCC1c2ccccc2-c2ccccc21)C(=O)O [Compound 9]		1 to 10	10 to 25		25 to 50			inhibition of the expression of Smad3 at the mRNA level [3]: could inhibit
N[C@@H](CC(=O)OCc1ccccc1)C(=O)O [Compound 22]	10 to 25		10 to 25	1 to 10	1 to 10	could inhibit	1 to 10	inhibition of the expression of Smad3 at the mRNA level [3]: could inhibit
CN(C)C(=O)N[C@@H](CC(=O)O)C(=O)O [Compound 62, (dimethylcarbamoyl)-L-aspartic acid]	1 to 10	1 to 10	1 to 10	1 to 10	1 to 10			
CN(C(=O)OCC1c2ccccc2-c2ccccc21)[C@@H](CC(=O)OC(C)(C)C)C(=O)O [Compound 19]	10 to 25					could inhibit	10 to 25	inhibition at 50 µM [8]: 10 to 25%
COC(=O)[C@@H](N)CC(=O)OC(C)(C)C [Compound 15]	10 to 25	1 to 10	10 to 25	1 to 10		could inhibit	10 to 25	inhibition of the expression of Smad3 at the mRNA level [3]: could inhibit
O=CN[C@@H](CC(=O)O)C(=O)O [Compound 29]	1 to 10	1 to 10						inhibition at 50 µM [8]: 1 to 10%
